# Measurements published in patent US20120295838A1, “Selective poly-substituted glycine antibiotics and related compositions” (priority 2008, published 2012).
# Numbered stars: 1 amine (or outer) side, 2 acyl side, 3 side chain; on linkers, the order of the positions; unused ones are H or OH. Square brackets hold non-standard residues; d marks the D form. Ends that are not written are not given here. Peptide text beside a SMILES is read from it. Gly(N-CH2CH2-imidazol-4-yl) = O=C(O)CNCCc1c[nH]cn1; X1 = CC(C)[C@H](C)N(CC(=O)[*:2])[*:1]; Nspe = C[C@H](NCC(=O)O)c1ccccc1; Nlys = NCCCCNCC(=O)O
# Key:
# [1] = system: E. coli JM109; format: cell-based; settings: Table 1; SR = (HD10)/(E. coli MIC); listed as 1-/Vhis6,12
# From the text: An initial set of 15 ampetoid analogs was synthesized to determine whether peptoids are affected by structural and sequence modifications in a manner consistent with AMP activities. The designs for ampetoids in this library were derived from two antibacterial and selective amphipathic dodecamers, 1 and 2. Peptoid 1 [H-(Nlys-Nspe-Nspe)4-NH2] is composed of 2/3 Nspe, the peptoid analog of phenylalanine, and 1/3 Mys, the peptoid analog of lysine (see FIG. 1 for the structures of representative peptoid monomers and corresponding N-substituents). Peptoid 2 [H-(Mys-Nssb-Nspe)4-NH2] contains 1/3 isoleucine-like Nssb monomers in place of Nspe. The variant sequences were designed to effect changes in chirality, length, hydrophobicity, charge, and amphipathicity. All of these compounds were tested for antibacterial activity against representative BSL1 Gram-negative (E. coli JM109) and Gram-positive (B. subtilis BR151) bacterial strains. As an initial measure of selectivity, the lytic activity of the peptoids was determined against human erythrocytes. Table 1 summarizes the sequences synthesized, the solvent composition at RP-HPLC elution as a relative measure of molecular hydrophobicity, and antibacterial and hemolytic activities.
# Antibacterial assays. MICs were determined according to CLSI M7-A6 protocols in a 96-well microtiter plate. […]
# [2] = system: A549 lung epithelial cells; assay: MTS assay, A549 cells
# Protocol: The biocompatibility of selected oligomers with A549 lung epithelial cells was evaluated using the MTS [3-(4,5-dimethylthiazol-2-yl)-5-(3-carboxymethoxyphenyl)-2-(4-sulfophenyl)-2H-tetrazolium] assay.
# MTS Assays. A549 carcinoma-derived lung epithelial cells (ATTC CCL-185) were cultured in Ham's F12K media (ATTC, Manassas, Va.). A peptoid solution plate (100 μL/well) was prepared by serial dilution of aqueous peptoid stocks in media. Peptoid solutions were transferred onto a 96-well plate of day-old cell monolayers containing 100 μL/well media with 5000 cells/well. MTS reagent (Promega Corporation, Madison, Wis.) (40 μL/well) was added to each well and the plate was incubated at 37° C. for 3 h, after which absorbance at 490 nm was determined. Percent inhibition was determined as [1−(A−Atest blank)/(Acontrol−Ablank)]×100, where A is the absorbance of the test well and Acontrol the average absorbance of wells with cells exposed to media and MTS (no peptoid). Atest blank (media, MTS, and peptoid) and Ablank (media and MTS) were background absorbances measured in the absence of cells. The average of six replicates are reported, and error bars show one standard deviation.
# [3] = system: NIH 3T3 mouse fibroblast cells; assay: MTS assay, NIH 3T3 cells; format: cell-based; settings: mouse, 3 h
# Outline: (§1)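 NIH/3T3 cells seeded at 5,000 per well, grown a day in DMEM with 10% FBS, then washed and exposed to serially diluted peptoid in HBSS together with MTS reagent. Absorbance at 490 nm read after 3 hours at 37 °C as a measure of metabolic activity; mean of six replicates.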
# [4] = MTS assay, NIH 3T3 cells; format: cell-based, mouse; settings: mouse, NIH 3T3 fibroblast cells
# Outline: as §1
molecule,measurement,setting,value
"C[C@@H](c1ccccc1)N(CC(=O)N(CCc1cnc[nH]1)CC(=O)N(CCCCN)CC(=O)N(CC(=O)N(CC(=O)N(CCCCN)CC(=O)N(CC(=O)N(CCc1cnc[nH]1)CC(N)=O)[C@@H](C)c1ccccc1)[C@@H](C)c1ccccc1)[C@@H](C)c1ccccc1)C(=O)CN(CCCCN)C(=O)CN(C(=O)CN(C(=O)CNCCCCN)[C@@H](C)c1ccccc1)[C@@H](C)c1ccccc1 [1-Nhis6,12, H-(Nlys-Nspe-Nspe-Nlys-Nspe-Nhis)2-NH2] (H-[Nlys][Nspe][Nspe][Nlys][Nspe][Gly(N-CH2CH2-imidazol-4-yl)][Nlys][Nspe][Nspe][Nlys][Nspe][Gly(N-CH2CH2-imidazol-4-yl)]-NH2)",Selectivity ratio (SR),[1],> 31
same,ID10 relative to that of pexiganan,[2],20 times
"GIGKFLKKAKKFGKAFVKILKK-NH2 [pexiganan, reference compound]",ID50,[3],9 µM
"CC(C)[C@H](C)N(CC(=O)N(CC(=O)N(CCCCN)CC(=O)N(CC(=O)N(CC(=O)N(CCCCN)CC(=O)N(CC(=O)N(CC(=O)N(CCCCN)CC(=O)N(CC(=O)N(CC(N)=O)[C@@H](C)c1ccccc1)[C@@H](C)C(C)C)[C@@H](C)c1ccccc1)[C@@H](C)C(C)C)[C@@H](C)c1ccccc1)[C@@H](C)C(C)C)[C@@H](C)c1ccccc1)C(=O)CNCCCCN [1-Nsdp2,5,8,11, H-(Nlys-Nsdp-Nspe)4-NH2] (H-[Nlys][X1][Nspe][Nlys][X1][Nspe][Nlys][X1][Nspe][Nlys][X1][Nspe]-NH2)",CC50 at 3 h,[4],20 µM
